Source: US20260125357A1, “LACTATE ENHANCING COMPOUNDS AND USES THEREOF” (GLIAPHARM SA, priority 2022, published 2026)

Key:
[1] = tested on: GLUT1-DS transgenic mice; assay: Lactate and glucose biosensors in GLUT1-DS transgenic mice; type: in vivo, mouse; conditions: oral 10 mg/kg, vs vehicle
Source text: (§1) Heterozygous transgenic mice on 129/SvJ genetic background in which glucose transporter 1 (GLUT1) has been knocked down were used (GLUT1(+/−)) (Wang et al., 2016, Human Molecular Genetics, 15(7)). GLUT1-deficiency syndrome (GLUT1-DS) is a prototypic hypometabolic diseases caused by the mutation of GLUT1 and decreased levels of glucose and lactate in the brain (Tang et al., 2019, Annals of Clinical and Translational Neurology 6(9)). Mating colonies were composed of wild-type female mice and GLUT1-DS male mice, or GLUT1-DS female mice and wild-type male mice. F1 pups were genotyped after ear punching at weaning using PCR to determine genotype. Mice of 2 to 3 months of age were used.
Cerebral extracellular levels of lactate and glucose were monitored in vivo in GLUT1-DS transgenic male mice and wild-type (WT) male littermates using lactate and glucose biosensors (Pinnacle Technology), according to the manufacturer's instructions. […] After surgery, mice were monitored closely and received analgesic treatment for at least 4 days. After mice had fully recovered from surgery, compounds of the invention or vehicle were administered per os as previously described and cerebral levels of extracellular lactate or glucose were dynamically recorded for 6 hours using lactate or glucose biosensors, respectively. […]

[2] = tested on: Wild-type (WT) and GLUT1-DS transgenic mice; assay: Grip strength test in WT and GLUT1-DS transgenic mice; type: in vivo, mouse; conditions: 10 mg/kg, after rotarod session
Source text: as §1
Motor strength was measured on the grip strength test (Bioseb) after rotarod session. Wild-type (WT) and GLUT1-DS transgenic mice were placed with 4 paws on the grid and maximal grip strength was recorded over 2 sessions with 5 minutes apart. Maximal grip strength over the 2 sessions was recorded.

[3] = tested on: APOE4(+) transgenic mice; assay: Morris Water Maze memory in APOE4(+) mouse model of Alzheimer's disease; type: in vivo; conditions: 30 mg/kg, 7 days after training
Source text: Mouse models carrying the APOE4 human allele have a decrease in metabolic gene expression and cerebral glucose uptake compared to APOE3-expressing model (Williams et al., 2020, neurobiol dis, 136:104742; Lin et al., 2015, J Cereb Blood Flow Metabl, 37(1):217-226; Alata et al., 2015, J Cereb Blood Flow Metab, 35(1):86-94. These physiological perturbations induce a brain hypometabolism, which recapitulates brain metabolic status observed in AD carriers of APOE4 allele. Male and female APOE4(+) and APOE3(+) (controls) transgenic mice are used at 3 months of age. Memory of APOE3(+) mice treated with Veh and APOE4 (+) mice treated with Veh or compound (2) at 10 mg/kg and 30 mg/kg is tested in the Morris Water Maze, as described below. Treatment is administered at each day of training, 30 minutes before the first training session. No treatment is administered during memory retention test.
(§2) Morris Water Maze (MWM), a well-established spatial and contextual memory test, will be used. […] A number of parameters including the latency to find the platform, time spent around the platform, path efficiency, % time spent in each quadrant is recorded, using automated tracking software (Ethovision). The type of exploration (direct, random, scan of the area) is also recorded. […]

[4] = tested on: mice injected with streptozotocin; assay: Morris Water Maze in streptozotocin ICV injection model of Alzheimer's disease; type: in vivo, mouse; conditions: 30 mg/kg, 1 Day after training, vs Veh
Description: Craniotomies are performed on isoflurane-anesthetized mice for injections of Veh or streptozotocin in cerebral ventricles (coordinates: −0.5 mm (to bregma), lateral+/−1.0 mm (to midline), ventral −2.2 mm (to dura)) (Kelliny S. et al., Molecular Neurobiology, 2021). A solution composed of Veh (0.9% NaCl) or streptozotocin (5 mg/kg) prepared in 1 μl artificial cerebrospinal fluid solution (aCSF, 20 mM citrate buffer, pH 4.2) is injected in both cerebral ventricles using Hamilton micro syringe at a constant speed of 100-200 nl/min. After injection, skin of the skull is sutured, and mice is monitored closely and receives analgesic treatment for at least 4 days. After mice had fully recovered from surgery, memory tests including Morris Water Maze (MWM), Inhibitory Avoidance (IA) and Novel Object Recognition (NOR), as described below, are performed. […]
as §2

COc1cc2ccnc(Nc3ccc(S(C)(=O)=O)cc3)c2cc1OC [Compound 2, 6,7-dimethoxy-N-(4-methylsulfonylphenyl)isoquinolin-1-amine]
extracellular glucose levels in the brain [1]: significantly increases | extracellular lactate levels in the brain [1]: significantly increases extracellular lactate | muscle strength (grip strength) [2]: did not lead to any difference on muscle strength | memory in the Morris Water Maze [3]: significant increase of memory | memory in the Morris Water Maze [4]: significantly higher
